Experiments:
Test in all cases: relative viability (nuclei count vs DMSO), 5 days (fraction); higher = more cells survive
[1] = compound: C=C(c1ccc(C(=O)O)cc1)c1cc2c(cc1C)C(C)(C)CCC2(C)C [Bexarotene] + CC(C)C[C@H](NC(=O)[C@H](Cc1ccccc1)NC(=O)c1cnccn1)B(O)O [Bortezomib] (partner 0.002 µM)
In short: (§1)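 Nuclei were stained with Hoechst during a one-step fixation (final 0.05% Triton X-100, 1% formaldehyde, 1 ug/ml Hoechst) carried out 5 days after dosing, then counted on 4× images. The cells, lung cancer lines in 1536-well plates, had been dosed by pin tool the day after seeding with one drug alone or a fixed anchor-drug dose plus five library-drug doses (not always all listed) in √10 steps. Relative viability is the nuclei count in treated wells divided by that in vehicle wells, and each value is the median of duplicate plates.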

[2] = compound: C=C(c1ccc(C(=O)O)cc1)c1cc2c(cc1C)C(C)(C)CCC2(C)C [Bexarotene] + CC1(C)CCC(c2ccc(Cl)cc2)=C(CN2CCN(c3ccc(C(=O)NS(=O)(=O)c4ccc(N[C@H](CCN5CCOCC5)CSc5ccccc5)c(S(=O)(=O)C(F)(F)F)c4)cc3)CC2)C1 [Navitoclax] (partner 0.5 µM)
In short: as §1

[3] = compound: C=C(c1ccc(C(=O)O)cc1)c1cc2c(cc1C)C(C)(C)CCC2(C)C [Bexarotene] + Cc1nc(Nc2ncc(C(=O)Nc3c(C)cccc3Cl)s2)cc(N2CCN(CCO)CC2)n1 [Dasatinib] (partner 0.075 µM)
In short: as §1

[4] = compound: C=C(c1ccc(C(=O)O)cc1)c1cc2c(cc1C)C(C)(C)CCC2(C)C [Bexarotene] + CCNC(=O)c1noc(-c2cc(C(C)C)c(O)cc2O)c1-c1ccc(CN2CCOCC2)cc1 [Luminespib] (partner 0.01 µM)
In short: as §1

Cell Line | relative viability ([1]; first compound 0.08 µM) | relative viability ([1]; first compound 0.253 µM) | relative viability ([1]; first compound 0.8 µM) | relative viability ([1]; first compound 2.53 µM) | relative viability ([1]; first compound 8 µM) | relative viability ([2]; first compound 0.08 µM) | relative viability ([2]; first compound 0.253 µM) | relative viability ([2]; first compound 0.8 µM) | relative viability ([2]; first compound 2.53 µM) | relative viability ([2]; first compound 8 µM) | relative viability ([3]; first compound 0.08 µM) | relative viability ([3]; first compound 0.253 µM) | relative viability ([3]; first compound 0.8 µM) | relative viability ([3]; first compound 2.53 µM) | relative viability ([3]; first compound 8 µM) | relative viability ([4]; first compound 0.08 µM) | relative viability ([4]; first compound 0.253 µM) | relative viability ([4]; first compound 0.8 µM) | relative viability ([4]; first compound 2.53 µM) | relative viability ([4]; first compound 8 µM)
NCI-H2085 | 1.04 | 0.918 | 0.929 | 0.946 | 0.939 | 1.09 | 1.13 | 0.961 | 0.949 | 0.924 | 0.25 | 0.2 | 0.19 | 0.218 | 0.241 | 0.451 | 0.556 | 0.374 | 0.457 | 0.378
NCI-H2087 | 0.877 | 0.972 | 0.979 | 0.753 | 0.725 | 1.11 | 0.944 | 1.1 | 0.848 | 0.759 | 1.02 | 0.919 | 0.703 | 0.843 | 0.903 | 0.174 | 0.169 | 0.175 | 0.139 | 0.142
NCI-H2126 | 1.13 | 1.17 | 1.08 | 1.12 | 1.11 | 0.925 | 0.916 | 0.844 | 0.958 | 0.872 | 0.573 | 0.588 | 0.586 | 0.584 | 0.602 | 0.929 | 0.843 | 0.924 | 0.916 | 0.823
NCI-H2228 | 1.08 | 1.3 | 1.05 | 1.11 | 0.841 | 0.822 | 0.71 | 0.455 | 0.931 | 0.721 | 0.56 | 0.635 | 0.48 | 0.343 | 0.509 | 0.186 | 0.121 | 0.145 | 0.145 | 0.132
